Numbers after ± are expanded uncertainties.
Tests used:
[1] = refractive index (Na D-line) (dimensionless); details: 101.33 kPa, Liquid, Standard Abbe refractometry
[2] = Liquid; for mass density: 101.33 kPa

Row | SMILES | refractive index ([1]; 293.15 K) | mass density ([2]; 293.15 K) | refractive index ([1]; 298.15 K) | mass density ([2]; 298.15 K) | further results
1 | ClC=C(Cl)Cl [trichloroethene] | 1.4782 ± 0.0008 | 1464 ± 4.6 kg/m3 | – | – | vapor or sublimation pressure ([2]; 357.85 K): 95.5 ± 4 kPa
2 | CN(C)C=O [dimethylformamide] | – | – | 1.4282 ± 0.0007 | 943.9 ± 2.5 kg/m3 | vapor or sublimation pressure ([2]; 421.15 K): 95.5 ± 4 kPa
3 | ClC(Cl)=C(Cl)Cl [tetrachloroethene] | 1.5058 ± 0.0008 | 1622.8 ± 5.3 kg/m3 | – | – | vapor or sublimation pressure ([2]; 392.15 K): 95.5 ± 4 kPa
4 | ClC(Cl)C(Cl)Cl [1,1,2,2-tetrachloroethane] | 1.494 ± 0.0008 | 1594.5 ± 5.1 kg/m3 | – | – | vapor or sublimation pressure ([2]; 417.25 K): 95.5 ± 4 kPa
5 | CC(C)CO [2-methyl-1-propanol] | – | – | 1.3939 ± 0.0008 | 797.8 ± 2.1 kg/m3 | vapor or sublimation pressure ([2]; 379.76 K): 95.5 ± 5 kPa
6 | ClCCCl [1,2-dichloroethane] | 1.4448 ± 0.0008 | 1252.1 ± 3.8 kg/m3 | – | – | vapor or sublimation pressure ([2]; 355.15 K): 95.5 ± 4 kPa
7 | CCC(C)O (configuration not stated) [butan-2-ol] | – | – | 1.3953 ± 0.0008 | 802.4 ± 2.2 kg/m3 | vapor or sublimation pressure ([2]; 371.25 K): 95.5 ± 4 kPa
8 | CCO [ethanol] | – | – | 1.3591 ± 0.0008 | 784.9 ± 2.1 kg/m3 | vapor or sublimation pressure ([2]; 349.95 K): 95.5 ± 4 kPa
9 | CC(C)(C)O [2-methylpropan-2-ol] | – | – | 1.3852 ± 0.0008 | 781.2 ± 2.1 kg/m3 | vapor or sublimation pressure ([2]; 354.15 K): 95.5 ± 4 kPa
